{"source": "patent EP3015165A1", "about": "“MATERIAL AND METHOD FOR CAPTURING, DETECTING AND Q[…] SULPHUR COMPOUNDS” (priority 2014, dated 2016)", "key": {"[1]": {"details": "couples H2S/HS^- et CH3SH/CH3S^-; cited from earlier work"}, "[2]": {"details": "[gas]/[liq], grandeur sans dimension; cited from earlier work"}, "[3]": {"details": "cited from earlier work"}, "[4]": {"assay": "Solubility limit in ethanol", "type": "physicochemical", "details": "organic solvent or mixture, éthanol, read-out: limite de solubilité dans l'éthanol", "description": "Le TMOS et l'éthanol sont mélangés dans un premier temps. Puis le volume désiré de DMPD à 0,5 M dans l'eau est introduit, suivi du volume désiré de FeCl3 à 0,5 M dans 0,267 M HCl. La quantité d'eau restante pour atteindre 1,44 mL suit l'ajout d'HCl provoquant un échauffement du sol qui est agité le temps de refroidir. Pour les formulations fortement dopées en DMPD, il est nécessaire de dissoudre la DMPD dans l'éthanol plutôt que dans l'eau. La limite de solubilité de la DMPD dans l'éthanol est de 21 mM."}, "[5]": {"assay": "Kinetics of the probe-target reaction in aqueous solution at neutral pH", "details": "pH=7,4, target 50 µM and DTNB 5 µM (Figure 2A)", "description": "(§1) Or, en milieu acide, les VSC modèles, à savoir le sulfure d'hydrogène et le méthanethiol, sont peu solubles. La présente étude a donc été menée en solution à pH neutre et, par conséquent sur les formes déprotonées Na2S et (CH3)SNa des deux VSC modèles.\nCette étude a montré que la cinétique de la réaction est suffisamment rapide pour envisager de l'employer dans un xérogel comme réaction de transduction : en moins de 5 min, l'équilibre est atteint (Figure 2A). On peut remarquer également que la réaction de détection du (CH3)SNa est moins rapide que celle de Na2S, avec en outre un moins bon rendement."}, "[6]": {"assay": "Stability of the probe in solution as a function of pH", "type": "physicochemical", "details": "milieu basique, from pH 9 the disulphide bridge breaks by itself in a few hours", "excerpt": "as §1"}, "[7]": {"details": "exposition prolongée à forte concentration; cited from earlier work"}}, "data": [{"smiles": "CS", "note": "[CH3SH, méthanethiol]", "values": [{"measurement": "pKa", "setting": "[1]", "value": "12,0"}, {"measurement": "constante de Henry Hcc", "setting": "[2]", "value": "1,23.10^-1"}, {"measurement": "solubilité dans l'eau", "setting": "[3]", "value": "0,48 mol.L^-1"}]}, {"smiles": "CN(C)c1ccc(N)cc1", "note": "[DMPD, N,N-diméthylparaphénylènediamine]", "values": [{"measurement": "solubility", "setting": "[4]", "value": 21, "unit": "mM"}]}, {"smiles": "O=C(O)c1cc(SSc2ccc([N+](=O)[O-])c(C(=O)O)c2)ccc1[N+](=O)[O-]", "note": "[DTNB, acide 5,5'-dithiobis(2-nitrobenzoïque)]", "values": [{"measurement": "time to reach equilibrium of the reaction", "setting": "[5]", "value": "< 5", "unit": "min"}, {"measurement": "stability in solution", "setting": "[6]", "value": "n'est pas stable"}]}, {"smiles": "S", "note": "[H2S, sulfure d'hydrogène]", "values": [{"measurement": "pKa", "setting": "[1]", "value": "7,0"}, {"measurement": "constante de Henry Hcc", "setting": "[2]", "value": "4,09.10^-1"}, {"measurement": "concentration causing paralysie du nerf olfactif", "setting": "[7]", "value": "100 à 150 ppm"}]}]}
